The record followed here is patent publication US8993585B2, “Cyclic amine substituted pyrimidinediamines as PKC inhibitors” (Rigel Pharmaceuticals, Inc., priority 2007, dated 2015).

One experiment concerns Human primary T cells. Description: IL-2 ELISA, Human Primary T Cell, Anti-CD3+CD28+ (Example 3). It is filed as cell-based. The settings on record: Homo sapiens, T-cell, 24 h, anti-CD3+CD28 stimulation. A digest of the protocol: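 Human primary T cells, 100,000 per well, were pre-incubated with compound in Yssel's medium for 1 h at 37 °C. The counter-assay used 0.5 ng/ml PMA with 0.1 uM ionomycin final.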
Consider `CCN(CC)C1CCC(Nc2nc(Nc3ccc(N4CCN(S(C)(=O)=O)CC4)c(C(F)(F)F)c3)ncc2F)CC1` (stereo not shown) [IV-9, N4-(4-Diethylamino)cyclohexyl-5-fluoro-N2-[4-(4-methylsulfonylpiperazino)-3-trifluoromethyl]phenyl-2,4-pyrimidinediamine], for which half-maximal inhibition (IC50) required 3450 nM.
Molecule `Cc1ccc(C)n1-c1cc(Nc2ncc(F)c(NC3CC(C)(C)NC(C)(C)C3)n2)ccc1OCCN1CCOCC1` [Compound I-441] registered an IC50 of 1690 nM.
Still for that read-out and setting: with `COC(=O)CCN1C(C)(C)CC(Nc2nc(Nc3ccc(OC)c(OC)c3)ncc2F)CC1(C)C` [Compound I-291] the figure was 22300 nM.
The molecule `CN1CCc2cc(Nc3ncc(F)c(NC4CC(C)(C)N(C)C(C)(C)C4)n3)ccc21` [II-51] yielded an IC50 of 4880 nM.
On the same count and under the same terms, the same measure for `CN1C(C)(C)CC(Nc2ccnc(Nc3cccc(C#N)c3)n2)CC1(C)C` [Compound I-227]: 806 nM; for `CCN(CC)C1CCC(Nc2nc(Nc3ccc(N4CCN(C)CC4)c(Cl)c3)ncc2F)CC1` (stereo not shown) [IV-8, N2-[3-Chloro-4-(4-methylpiperazino)]phenyl-N4-(4-diethylamino)cyclohexyl-5-fluoro-2,4-pyrimidinediamine]: 4410 nM.
The same measure, in the same setting: with `Cc1ccc(Nc2ncc(F)c(N(Cc3ccc(-c4ccccc4C#N)cc3)C3CC(C)(C)N(C)C(C)(C)C3)n2)cc1C#N` [Compound I-326] the figure was 3080 nM; with `CN1C(C)(C)CC(Nc2nc(Nc3ccc4cnn(C)c4c3)ncc2F)CC1(C)C` [II-41], 1610 nM.
Still for that read-out and setting: with `CN1C(C)(C)CC(Nc2nc(Nc3nc(-c4ccc(Cl)cc4)cs3)ncc2F)CC1(C)C` [II-15] the figure was 835 nM.
`CC1(C)CC(Nc2nc(Nc3ccc(-c4ccc(N5CCOCC5)nc4)c(C#N)c3)ncc2F)CC(C)(C)N1` [Compound I-429] registered an IC50 of 770 nM.
Still for that read-out and setting: with `CN1C(C)(C)CC(Nc2nc(Nc3cc4c(cc3Cl)OCO4)ncc2F)CC1(C)C` [II-115] the figure was 1840 nM; with `CN1C(C)(C)CC(Nc2nc(Nc3ccc4c(c3)OC(C)(C)C(=O)N4CCF)ncc2F)CC1(C)C` [II-80], 199 nM.
Turning to `CN1C(C)(C)CC(Nc2nc(Nc3nc(-c4ccc5c(c4)OCCO5)cs3)ncc2F)CC1(C)C` [II-132], inhibition was half-maximal at 840 nM (IC50).
Still for that read-out and setting: the same measure for `CN1C(C)(C)CC(Nc2nc(Nc3ccc4c(c3)OC(C)(C)O4)ncc2F)CC1(C)C` [II-103]: 3690 nM; for `CC(C)N1C(=O)C(C)(C)Oc2cc(Nc3ncc(C#N)c(NC4CC(C)(C)N(C)C(C)(C)C4)n3)ccc21` [II-74]: 349 nM.
The same measure, in the same setting: the same measure for `CN1C(C)(C)CC(Nc2nc(Nc3cccc(OC(F)(F)F)c3)ncc2Cl)CC1(C)C` [Compound I-240]: 683 nM.
The same measure, in the same setting: with `Cc1cccc2sc(Nc3ncc(F)c(NC4CC(C)(C)N(C)C(C)(C)C4)n3)nc12` [II-19] the figure was 890 nM.

Still in this experiment, the particulars now being: anti-CD3+CD28 stimulation, 24 hours.
As to `COc1cc(Nc2ncc(C(N)=O)c(NC3CC(C)(C)NC(C)(C)C3)n2)cc(-n2nnnc2C)c1` [Compound I-387], half-maximal inhibition (IC50) was put at 3470 nM.
The same measure, in the same setting: with `COc1cc(Nc2ncc(C#N)c(NC3CC(C)(C)NC(C)(C)C3)n2)cc(-n2cnnn2)c1` [Compound I-403] the figure was 500 nM.
Still for that read-out and setting: the same measure for `CN1C(C)(C)CC(Nc2nc(Nc3cnc(N4CCOCC4)c(C(F)(F)F)c3)ncc2F)CC1(C)C` [Compound I-271]: 670 nM.
On the same count and under the same terms, with `CN1C(C)(C)CC(Nc2nc(Nc3cc(C(F)(F)F)c(Br)c(C(F)(F)F)c3)ncc2F)CC1(C)C` [Compound I-117] the figure was 1250 nM; with `CN1C(C)(C)CC(Nc2nc(Nc3ccc(F)c(F)c3)ncc2F)CC1(C)C` [Compound I-21], 414 nM.
Consider `CC1(C)CC(Nc2nc(Nc3cccc(-n4cnnn4)c3)ncc2C#N)CC(C)(C)N1` [Compound I-393], for which the IC50 came to 430 nM.
Turning to `CN1C(C)(C)CC(Nc2nc(Nc3ccc(N4CCN(S(C)(=O)=O)CC4)c(C(F)(F)F)c3)ncc2C(F)(F)F)CC1(C)C` [Compound I-88], inhibition was half-maximal at 287 nM (IC50).
On the same count and under the same terms, with “5-Fluoro-N2-(4-methyl-cyano)phenyl-N4-(1,2,2,5,5-pentamethylpyrrolidin-3-yl)-2,4-pyrimidinediamine [Compound I-278]” the figure was 1280 nM.
For the molecule `COc1cc(Cl)c(Nc2ncc(F)c(NC3CC(C)(C)N(C)C(C)(C)C3)n2)cc1OC` [Compound I-386], the IC50 amounted to 3210 nM.
With `CCOC(=O)c1cnc(Nc2ccc(OC)c(Cl)c2)nc1NC1CC(C)(C)N(C)C(C)(C)C1` [Compound I-80], half-maximal inhibition (IC50) was put at 2690 nM.
Same read-out and setting: with `CN1C(C)(C)CC(Nc2nc(Nc3ccc(F)c(-n4cnnn4)c3)ncc2C(N)=O)CC1(C)C` [Compound I-468] the figure was 2690 nM; with `CN1C(C)(C)CC(Nc2nc(Nc3ccc(N4CCN(S(C)(=O)=O)CC4)c(Cl)c3)ncc2C(N)=O)CC1(C)C` [Compound I-91], 3910 nM; with `CN1CCN(C(=O)c2ccc(Nc3ncc(F)c(NC4CC(C)(C)N(C)C(C)(C)C4)n3)cc2Cl)CC1` [Compound I-44], 2010 nM.
Molecule `Cc1cc(Nc2ncc(F)c(NC3CC(C)(C)N(C)C(C)(C)C3)n2)ccc1-c1cnn(C)c1` [Compound I-151] came in with an IC50 of 635 nM.
Regarding `CC1(C)CC(Nc2nc(Nc3cc(OCC(F)(F)F)cc(OCC(F)(F)F)c3)ncc2C#N)CC(C)(C)N1` [Compound I-419], the IC50 is 270 nM.
Same read-out and setting: the same measure for `COc1cc(Nc2ncc(F)c(NC3CC(C)(C)N(C)C(C)(C)C3)n2)ccc1-n1nc(C)cc1C` [Compound I-361]: 4660 nM.
`CN1CCN(c2ccc(Nc3ncc(Cl)c(NC4CC(C)(C)N(C)C(C)(C)C4)n3)cc2C(F)(F)F)CC1` [Compound I-37] returned an IC50 of 511 nM.
On the same count and under the same terms, the same measure for `CC(C)N1C(=O)C2(CCC2)Oc2cc(Nc3ncc(F)c(NC4CC(C)(C)N(C)C(C)(C)C4)n3)ccc21` [II-165]: 410 nM; for `COc1cc(Nc2ncc(C(N)=O)c(NC3CC(C)(C)N(C)C(C)(C)C3)n2)cc(-n2cnnn2)c1` [Compound I-390]: 680 nM.
The same measure, in the same setting: the same measure for `Cc1nnnn1-c1cccc(Nc2ncc(C#N)c(NC3CC(C)(C)N(C)C(C)(C)C3)n2)c1` [Compound I-462]: 270 nM; for `CCCN1C(=O)C2(CCC2)Oc2cc(Nc3ncc(F)c(NC4CC(C)(C)N(C)C(C)(C)C4)n3)ccc21` [II-166]: 440 nM; for `CN1C(C)(C)CC(Nc2nc(Nc3ccc(OC(F)(F)F)c(-c4cc5ccccc5s4)c3)ncc2F)CC1(C)C` [Compound I-211]: 1700 nM.
For the molecule `CC1(C)CC(Nc2nc(Nc3cc(O)cc(O)c3)ncc2F)CC(C)(C)N1` [Compound I-383], half-maximal inhibition (IC50) was put at 30000 nM.
Still for that read-out and setting: with `COc1cc(Nc2ncc(C(F)(F)F)c(NC3CC(C)(C)N(C)C(C)(C)C3)n2)cc(-n2nnnc2C)c1` [Compound I-370] the figure was 93.2 nM; with `COc1ccc(Nc2ncc(F)c(NC3CC(C)(C)N(C)C(C)(C)C3)n2)cc1OCc1ccncc1` [Compound I-417], 2670 nM; with `CN1C(C)(C)CC(Nc2nc(Nc3ccc(-n4nnnc4-c4ccco4)cc3)ncc2F)CC1(C)C` [Compound I-458], 790 nM.
For the molecule `CN1C(C)(C)CC(Nc2nc(Nc3ccc(-n4cccc4)c(C#N)c3)ncc2C#N)CC1(C)C` [Compound I-206], half-maximal inhibition (IC50) was put at 1030 nM.
On the same count and under the same terms, with `CCOC(=O)c1cnc(Nc2cccc(C#N)c2)nc1NC1CC(C)(C)N(C)C(C)(C)C1` [Compound I-81] the figure was 28600 nM; with `CN1C(C)(C)CC(Nc2nc(Nc3ccc(-c4cnn(C)c4)c(F)c3)ncc2F)CC1(C)C` [Compound I-150], 701 nM.
